Our source for the Activity values is ChEMBL document CHEMBL1155670, “Identification of deoxymiroestrol as the actual rejuvenating principle of "Kwao Keur", Pueraria mirifica. The known miroestrol may be an artifact” (J Nat Prod, 2000).

Assay [1] has as its system MCF7. Briefly: Growth promoting activity in human MCF7 cells at >10 nM after 7 days by colorimetric methylene blue assay in presence of Toremifene. The class given is functional, cell-based.
In assay [2] the test system is MCF7. Briefly: Growth promoting activity in human MCF7 cells after 7 days by colorimetric methylene blue assay in presence of Toremifene. The class given is functional, cell-based.

Molecules are shown by their SMILES. Activity calls are given as the source filed them. The calls are words filed in the database; no cut-off is given here.

For `CC1(C)[C@@H]2C[C@]3(O)CC(=O)[C@@H](C4=COc5cc(O)ccc5[C@H]41)[C@@H]2[C@H]3O`, the outcome in assay [1] and in assay [2] was Active.

Regarding `CC1(C)[C@@H]2C[C@]3(O)CC(=O)[C@@](O)(C4=COc5cc(O)ccc5[C@H]41)[C@@H]2[C@H]3O`, the result in assay [1] and in assay [2] was Active.
